The target in one data set is T1, AAK1 (Homo sapiens, UniProt Q2M2I8).
T1 construct: purchased Signalchem A01-11G-10
The experiment in a line: In vitro AAK1 enzyme activity assay (ADP-Glo). Type of data set: biochemical. The conditions noted are these: read-out: Inhibitory activity against AAK1 IC50. As to the method:
Compound stock solution (concentration: 10 mM, dissolved in DMSO) was diluted with DMSO to 0.2 mM and then diluted with DMSO in 5-fold gradient to obtain compound solutions with 10 concentrations. Subsequently, the compound solutions with different concentrations were diluted 50-fold in 1× kinase reaction buffer (containing 40 mM Tris, 20 mM MgCl2, 0.1% BSA and 0.5 mM DTT) for later use. AAK1 (Signalchem, Cat #A01-11G-10) was diluted with 1× kinase reaction buffer to 2-fold the final concentration (final concentrations: 30 nM and 28 nM). AAK1 was added to a 384-well white plate at 2 μL/well, and the compounds were then added at 1 μL/well. The plate was sealed with a plate-sealing film, centrifuged at 1000 rpm for 30 seconds and then placed at room temperature for 10 minutes. […] The RLU (Relative luminescence unit) signal values were read using a Biotek multimode microplate reader and the percent inhibition was calculated according to the following formula: [1−(LUMcompound−LUMpositive control)/(LUMnegative control−LUMpositive control)]×100. IC50 values were calculated using Graphpad 7.0 software using a four-parameter non-linear fit equation.

Data set [1] can be described thus: Pharmacokinetic test of dogs. The following applies: beagle dogs, i.g. (3 mg/kg). It counts as in vivo. The protocol:
Experimental animals: male beagle dogs, about 8 to 11 kg, 6 beagle dogs/compound, purchased from Beijing Marshall Biotechnology Co., Ltd.
Experimental method: on the day of the experiment, 12 beagle dogs were randomly grouped according to their body weights. The animals were fasted with water available for 12 to 14 h one day before the administration and were fed 4 h after the administration. Administration was performed as per Table 2.
Before and after the administration, 1 ml of blood was taken from the jugular veins or limb veins, and placed in an EDTAK2 centrifuge tube. Centrifugation was performed at 5000 rpm at 4° C. for 10 min, and plasma was collected. Blood sampling time points for both the LX9211 intravenous administration group and intragastric administration group include: 0 min, 5 min, 15 min, 30 min, 1 h, 2 h, 4 h, 6 h, 8 h, 10 h, 12 h, and 24 h, and blood sampling time points for both the compound 9 intravenous administration group and intragastric administration group include: 0 min, 5 min, 15 min, 30 min, 1 h, 2 h, 4 h, 6 h, 8 h, 10 h, 12 h, 24 h, and 48 h. Before analysis and detection, all samples were stored at −80° C., and the samples were quantitatively analyzed by LC-MS/MS.

The nature of data set [2]: Mouse brain/blood ratio test. Type of data set: in vivo, ICR mice. The conditions noted are these: mice. As to the method:
male ICR mice, 20 to 25 g, 9 mice/compound. purchased from Chengdu Ddossy Experimental Animals Co., Ltd.
on the day of the experiment, 18 ICR mice were randomly grouped according to their body weights. The animals were fasted with water available for 12 to 14 h one day before the administration and were fed 4 h after the administration.
After intragastric administration, whole blood and brain tissue were collected at 0.5 h, 4 h and 24 h, and the whole blood was centrifuged to separate the plasma. The brain tissue was rinsed with cold physiological saline to remove the residual blood on the surface, drained out and then homogenized. Before analysis and detection, all samples were stored at −80 C, and the samples were quantitatively analyzed by LC-MS/MS.

Data set [3] concerns SNL-induced mouse model of neuropathic pain. The experiment in a line: Spinal nerve ligation (SNL)-induced mouse model of neuropathic pain, mechanical pain threshold (Von Frey). It counts as in vivo, C57BL/6J mice. The conditions noted are these: for Course of analgesic efficacy over time / Effect on pain threshold (MPT) of mice after SNL modeling: 10 mg/kg intragastric; for Course of analgesic efficacy over time: 1 to 6 hours after administration; for Effect on pain threshold (MPT) of mice after SNL modeling: single administration, 1, 3 and 6 hours after administration. The text has this: Male C57BL/6J mice (8 weeks old) purchased from Jinan Pengyue Experimental Animal Breeding Co., Ltd. were adaptively raised for one week and then the models were established. The specific establishment method comprises the following steps: • 1) disinfecting the surgical instrument and ligature; • 2) anesthetizing the mice with isoflurane and then placing the mice on the operating table in the prone position; • 3) shaving the fur near the hip bones of the mice and preparing the skin, and making an incision of about 2 cm along the spine; • 4) isolating the fascia along the spine, performing blunt dissection of the muscles, and exposing the transverse process of L5; • 5) carefully cutting the transverse process of L5 with forceps and exposing the L5 spinal nerve; • 6) carefully isolating the L5 nerve with a glass dissecting needle, and ligating the L5 nerve with a 5-0 ligature; and • 7) suturing the muscles and skin and disinfecting same with iodophor.
The mice that were unsuccessful in modeling were eliminated the next day after modeling (marker for successful modeling: mice with their hind paws curled up). After modeling, the mice were stroked for 3 to 5 minutes every day to ensure that the animals were familiar with the experimenter, and then the mice were placed on a metal pain measuring frame for 40 to 60 minutes of adaptation. After 3 days of acclimatization, Von Frey filaments (Aesthesio®; 0.16 g, 0.4 g, 0.6 g, 1.0 g, 1.4 g and 2.0 g) were used to test the pre-administration baseline values of the animals (Ascending testing approach). Each animal was tested twice and average values were taken, with intervals of at least 5 minutes. The animals were grouped according to the baseline values (10 animals per group). After the grouping, LX-9211 (1 and 10 mg/kg), compound 2 (1 and 10 mg/kg) or vehicle (40% PEG-400+10% ethanol+15% Tween 80+35% physiological saline) was administered intragastrically. The mice were tested for the mechanical pain threshold (MPT) at 1, 3 and 6 hours after the administration. Time-MPT curve was plotted using GraphPad 8.3.0, and statistical analysis was performed.

The target in a further data set is T2, hERG potassium channel (Homo sapiens, UniProt Q12809).
T2 construct: expressed in transfected cells
T2 sequence (Q12809 whole entry): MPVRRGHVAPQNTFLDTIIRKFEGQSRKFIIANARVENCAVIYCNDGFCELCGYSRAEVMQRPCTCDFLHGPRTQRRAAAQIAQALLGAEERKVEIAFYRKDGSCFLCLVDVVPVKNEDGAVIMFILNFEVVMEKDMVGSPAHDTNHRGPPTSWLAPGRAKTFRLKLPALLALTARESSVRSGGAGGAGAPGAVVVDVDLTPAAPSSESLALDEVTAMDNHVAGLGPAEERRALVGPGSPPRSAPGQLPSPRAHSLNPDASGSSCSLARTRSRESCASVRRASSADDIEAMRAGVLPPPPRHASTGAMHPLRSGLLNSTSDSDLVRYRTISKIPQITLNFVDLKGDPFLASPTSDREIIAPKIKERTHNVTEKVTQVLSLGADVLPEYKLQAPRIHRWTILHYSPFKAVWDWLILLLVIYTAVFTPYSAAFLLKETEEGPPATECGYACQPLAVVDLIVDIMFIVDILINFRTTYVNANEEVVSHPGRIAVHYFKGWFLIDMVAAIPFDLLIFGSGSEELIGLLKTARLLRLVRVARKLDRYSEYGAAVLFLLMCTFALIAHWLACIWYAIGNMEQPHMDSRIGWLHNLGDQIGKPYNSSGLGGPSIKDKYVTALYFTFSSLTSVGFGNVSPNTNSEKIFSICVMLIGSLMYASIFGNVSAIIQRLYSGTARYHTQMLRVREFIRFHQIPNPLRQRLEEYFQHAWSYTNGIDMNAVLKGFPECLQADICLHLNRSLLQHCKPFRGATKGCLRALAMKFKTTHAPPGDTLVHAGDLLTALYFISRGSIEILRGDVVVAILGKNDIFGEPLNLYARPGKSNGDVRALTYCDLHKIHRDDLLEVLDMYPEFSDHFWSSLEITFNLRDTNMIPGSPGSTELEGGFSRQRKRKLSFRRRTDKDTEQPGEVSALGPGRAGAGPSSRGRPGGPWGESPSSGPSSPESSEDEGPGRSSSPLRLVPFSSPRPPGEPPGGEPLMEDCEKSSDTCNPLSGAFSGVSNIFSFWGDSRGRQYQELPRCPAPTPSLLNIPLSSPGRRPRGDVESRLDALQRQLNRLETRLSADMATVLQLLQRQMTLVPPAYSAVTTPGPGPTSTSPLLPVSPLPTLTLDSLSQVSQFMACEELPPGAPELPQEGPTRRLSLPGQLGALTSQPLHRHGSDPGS
The experiment in a line: Test for hERG potassium ion channel (manual whole cell patch-clamp, CHO cells). Type of data set: cell-based. An excerpt:
Experimental platform: electrophysiological manual patch-clamp system
Cell line: Chinese hamster ovary (CHO) cell line stably expressing hERG potassium ion channel
Experimental method: in CHO (Chinese Hamster Ovary) cells stably expressing hERG potassium channel, the whole cell patch-clamp technique was used to record hERG potassium channel current at room temperature. The glass microelectrode was made of a glass electrode blank (BF150-86-10, Sutter) by a puller. The tip resistance after filling the liquid in the electrode was about 2-5 MΩ. The glass microelectrode can be connected to the patch-clamp amplifier by inserting the glass microelectrode into an amplifier probe. The clamping voltage and data recording were controlled and recorded by the pClamp 10 software through a computer. The sampling frequency was 10 kHz, and the filtering frequency was 2 kHz. […]
Data processing: data analysis processing was carried out by using pClamp 10, GraphPad Prism 5 and Excel software. The inhibition degree of hERG potassium current (peak value of hERG tail current induced at −50 mV) at different compound concentrations was calculated by the following formula: […]
Compound IC50 was calculated using GraphPad Prism 5 software by fitting according to the following equation: […]

The term IC50 denotes the midpoint of a concentration-inhibition curve. As a reminder, the Kp is tissue or fluid exposure divided by exposure in the circulation.

T1 sequence (Q2M2I8 27-365 limits assumed): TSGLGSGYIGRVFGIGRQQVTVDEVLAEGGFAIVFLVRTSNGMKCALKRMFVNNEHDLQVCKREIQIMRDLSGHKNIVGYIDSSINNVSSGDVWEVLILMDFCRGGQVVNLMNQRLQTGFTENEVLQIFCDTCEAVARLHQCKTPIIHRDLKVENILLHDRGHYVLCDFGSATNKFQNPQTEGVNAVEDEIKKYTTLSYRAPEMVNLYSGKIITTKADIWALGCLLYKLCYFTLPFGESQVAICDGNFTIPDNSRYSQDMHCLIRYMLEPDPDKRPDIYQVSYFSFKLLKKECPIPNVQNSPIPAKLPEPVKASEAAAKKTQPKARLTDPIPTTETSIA

Take `COC(=O)Nc1cc(-c2ccc(OC[C@@](C)(N)CC(C)(C)F)c(C)n2)ccn1` [Compound 10]: on AAK1, the IC50 is 13.7 nM.
For the molecule `CC(C)C[C@](C)(N)COc1ccc(-c2ccnc(C(F)F)c2)nc1C(F)F` [LX-9211, reference compound], the F in data set [1] is 22.2 ± 8.1%. In addition, the “Brain tissue AUC0-t” value in data set [2] (i.g. (10 mg/kg)) was found to be 110424 ng·h/g. Besides, in data set [3], the “Course of analgesic efficacy over time” value is “efficacy gradually decreased thereafter” and the “Effect on pain threshold (MPT) of mice after SNL modeling” value is “effectively increased the pain threshold”.
`C=C(C)CC(C)(N)COc1ccc(-c2ccnc(C(F)F)c2)nc1C(F)F` (single isomer, unassigned) [Compound 2]: on hERG potassium channel (human, CHO cells stably expressing hERG potassium channel, at 40 μM, read-out: Inhibition rate at the highest concentration tested (hERG potassium channel current)), the inhibition at 40 µM was 86.6 ± 1.77%. Moreover, at hERG potassium channel (read-out: IC50 (hERG potassium channel current)), the IC50 was found to be 8750 nM. The Kp in data set [2] (male, ICR, mouse, brain/plasma, po, i.g. (10 mg/kg)) is 64.5. The AUC(0-t) in data set [2] (male, ICR, mouse, plasma, po, i.g. (10 mg/kg), read-out: Plasma AUC0-t) came out at 572 ng·h/mL. For the same molecule, the “Brain penetrability (in words)” value in data set [2] is “high brain penetrability”. Further, in data set [2] (i.g. (10 mg/kg)), the “Brain tissue AUC0-t” value is 36853 ng·h/g. Also, in data set [3], the “Course of analgesic efficacy over time” value is “tended to be stable” and the “Effect on pain threshold (MPT) of mice after SNL modeling” value is recorded as “effectively increased the pain threshold”. The “Efficacy compared with LX-9211” value in data set [3] (at 3 and 6 hours after the administration) is reported as “better efficacy than LX-9211”. Further, the “Pharmacodynamic activity as an analgesic compared with LX-9211” value in data set [3] (overall conclusion) is “better pharmacodynamic activity than LX-9211”. Besides, the IC50 at AAK1 came out at 10.9 nM.
Molecule `COC(=O)Nc1cc(-c2ccc(OC[C@@](C)(N)CC(C)(C)F)c(C(F)F)n2)ccn1` [Compound 9] had a F in data set [1] of 113 ± 6.9%.
